Data: patent US7713952B2, “2-methylene-19,26,27-trinor-(20S)-1α-hydroxyvitamin D3 and its uses” (Wisconsin Alumni Research Foundation, priority 2004, dated 2010)

How the values were obtained:
[1] = target: T1, full-length recombinant rat vitamin D receptor (Rattus norvegicus, UniProt P13053); assay: Vitamin D receptor competitive binding with [3H]-1,25(OH)2D3; settings: full-length recombinant rat VDR; FIG. 1; read-out: Ki, competition with [3H]-1,25(OH)2D3 for binding to vitamin D receptor
T1 construct: Full-length recombinant rat receptor was expressed in E. coli; histidine tag (C); made in house; host or cells: E. coli BL21 (DE3) Codon Plus RIL
T1 sequence (P13053 1-423): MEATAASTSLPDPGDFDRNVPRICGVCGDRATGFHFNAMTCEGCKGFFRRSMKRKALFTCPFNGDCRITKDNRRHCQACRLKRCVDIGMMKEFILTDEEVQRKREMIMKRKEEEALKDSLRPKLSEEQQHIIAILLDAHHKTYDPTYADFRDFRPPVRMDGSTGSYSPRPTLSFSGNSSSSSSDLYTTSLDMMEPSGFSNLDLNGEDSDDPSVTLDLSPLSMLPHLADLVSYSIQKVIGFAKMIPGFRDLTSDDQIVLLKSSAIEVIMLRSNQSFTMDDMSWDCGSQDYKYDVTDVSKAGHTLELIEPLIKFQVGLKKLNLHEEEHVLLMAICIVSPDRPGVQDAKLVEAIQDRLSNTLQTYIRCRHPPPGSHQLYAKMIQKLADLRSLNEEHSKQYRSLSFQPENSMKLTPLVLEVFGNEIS
Procedure: Full-length recombinant rat receptor was expressed in E. coli BL21 (DE3) Codon Plus RIL cells and purified to homogeneity using two different column chromatography systems. The first system was a nickel affinity resin that utilizes the C-terminal histidine tag on this protein. The protein that was eluted from this resin was further purified using ion exchange chromatography (S-Sepharose Fast Flow). Aliquots of the purified protein were quick frozen in liquid nitrogen and stored at −80° C. until use. For use in binding assays, the protein was diluted in TEDK50 (50 mM Tris, 1.5 mM EDTA, pH7.4, 5 mM DTT, 150 mM KCl) with 0.1% Chaps detergent. The receptor protein and ligand concentration were optimized such that no more than 20% of the added radiolabeled ligand was bound to the receptor.
Radiolabeled and unlabeled ligands were added to 100 mcl of the diluted protein at a final ethanol concentration of ≦10%, mixed and incubated overnight on ice to reach binding equilibrium. The following day, 100 mcl of hydroxylapatite slurry (50%) was added to each tube and mixed at 10-minute intervals for 30 minutes. The hydroxylapaptite was collected by centrifugation and then washed three times with Tris-EDTA buffer (50 mM Tris, 1.5 mM EDTA, pH 7.4) containing 0.5% Titron X-100. […]

[2] = test system: Human promyelocytic leukemia (HL60) cells; assay: HL-60 cell differentiation (nitro blue tetrazolium reduction); type: cell-based; settings: 4 days, FIG. 2
Procedure: Radiolabeled and unlabeled ligands were added to 100 mcl of the diluted protein at a final ethanol concentration of ≦10%, mixed and incubated overnight on ice to reach binding equilibrium. The following day, 100 mcl of hydroxylapatite slurry (50%) was added to each tube and mixed at 10-minute intervals for 30 minutes. The hydroxylapaptite was collected by centrifugation and then washed three times with Tris-EDTA buffer (50 mM Tris, 1.5 mM EDTA, pH 7.4) containing 0.5% Titron X-100. After the final wash, the pellets were transferred to scintillation vials containing 4 ml of Biosafe II scintillation cocktail, mixed and placed in a scintillation counter. Total binding was determined from the tubes containing only radiolabeled ligand. • HL-60 Differentiation • Test Material Study Drugs
The study drugs were dissolved in ethanol and the concentrations determined using UV spectrophotometry. Serial dilutions were prepared so that a range of drug concentrations could be tested without changing the final concentration of ethanol (≦0.2%) present in the cell cultures. […]
HL60 cells were plated at 1.2×10^5 cells/ml. […] The percentage of differentiated cells was determined by counting a total of 200 cells and recording the number that contained intracellular black-blue formazan deposits. Verification of differentiation to monocytic cells was determined by measuring phagocytic activity (data not shown).

[3] = test system: 24-hydroxylase (24Ohase) gene promoter in ROS 17/2.8 (bone) cells; assay: In vitro transcription assay (24-hydroxylase promoter luciferase reporter); type: cell-based; settings: ROS 17/2.8 cells, 24OHase-luciferase, 16 h; FIG. 3; read-out: EC50, transcriptional activity in bone cells
Procedure: In Vitro Transcription Assay
Transcription activity was measured in ROS 17/2.8 (bone) cells that were stably transfected with a 24-hydroxylase (24Ohase) gene promoter upstream of a luciferase reporter gene (Arbour et al., 1998). Cells were given a range of doses. Sixteen hours after dosing the cells were harvested and luciferase activities were measured using a luminometer.
RLU=relative luciferase units.

vitamin D-deficient rats [4] = assay: Bone calcium mobilization (serum calcium); type: in vivo, rat; settings: rats on 0.02% Ca diet
Procedure: (§1) Intestinal Calcium Transport and Bone Calcium Mobilization
(§2) Male, weanling Sprague-Dawley rats were placed on Diet 11 (0.47% Ca) diet +AEK for one week followed by Diet 11 (0.02% Ca) +AEK for 3 weeks. The rats were then switched to a diet containing 0.47% Ca for one week followed by two weeks on a diet containing 0.02% Ca. Dose administration began during the last week on 0.02% calcium diet. Four consecutive ip doses were given approximately 24 hours apart. Twenty-four hours after the last dose, blood was collected from the severed neck and the concentration of serum calcium determined as a measure of bone calcium mobilization. The first 10 cm of the intestine was also collected for intestinal calcium transport analysis using the everted gut sac method.

vitamin D-deficient rats [5] = assay: Intestinal calcium transport (everted gut sac method); type: in vivo, rat; settings: FIG. 6
Procedure: as §1, §2

[6] = 87 or 780 pmol/day ip for 4 days

Compound	Ki [1]	EC50 ([2]; Homo sapiens, HL-60, 96 h)	EC50 [3]	mobilization of bone calcium (serum calcium) (vitamin D-deficient rats [4]; 87 pmol/day ip for 4 consecutive days)	mobilization of bone calcium (serum calcium) (vitamin D-deficient rats [4]; 780 pmol/day and 7020 pmol/day ip for 4 days)	intestinal calcium transport (vitamin D-deficient rats [5]; 7020 pmol/day ip for 4 days)	intestinal calcium transport (vitamin D-deficient rats [5]; [6])	EC50 [2]	serum calcium levels (bone calcium mobilization) (vitamin D-deficient rats [4]; all dosages, FIG. 4)
C=C1[C@H](O)CC(=C/C=C2\CCC[C@@]3(C)C2CCC3[C@@H](C)CCCC)C[C@H]1O (stereo partly drawn) [OM, 2-methylene-19,26,27-trinor-(20S)-1α-hydroxyvitamin D3]	0.077 nM	4.7 nM	3.2 nM	did not result in mobilization of bone calcium	without any substantial effect	significant intestinal calcium transport activity was recorded	does not promote intestinal calcium transport		
C=C1/C(=C\C=C2/CCC[C@]3(C)[C@@H]([C@H](C)CCCC(C)(C)O)CC[C@@H]23)C[C@@H](O)C[C@@H]1O [1,25(OH)2D3, 1α,25-dihydroxyvitamin D3, reference compound]							promotes a significant increase	2.9 nM	increased serum calcium levels at all dosages
